Source: patent publication US4731370A, “Pyridyl ester containing 1,4-dihydropyridine derivatives and salts thereof and pharmaceutical composition containing the same” (Toyama Chemical Co., Ltd., priority 1984, dated 1988)
Structures can show the parent of a compound that is named as a salt.

Assays:
[1] = system: mouse pulmonary infraction model; assay: Antithrombosis activity, mouse pulmonary infraction model, paralytic time-shortening (0.15 ml epinephrine/collagen); format: in vivo, mouse (ICR strain); details: 1 h, oral, challenge after one hour, 10 mice, read-out: Paralytic time-shortening percentage
Experimental: (§1) The compounds of this invention to be tested were used in the form of a hydrochloride.
Comparing the paralytic time of the control group, the paralytic time-shortening percentage due to the compound to be tested was determined.
(§2) The test compounds shown in Table 4 were adjusted to the desired concentrations with water, and the test compounds shown in Table 5 were adjusted to a concentration of 5 mg/ml with an aqueous solution containing 10% by volume of each of dimethyl sulfoxide and Cremophor, and then diluted with water to the desired concentrations.

[2] = system: Thromboxane-Synthesizing Enzyme; assay: Thromboxane-synthesizing enzyme-inhibitory activity (MDA production in platelet-rich plasma after oral dosing); format: in vivo, rat (Wistar strain); details: rat, 3 mg/kg, blood after one hour
Experimental: as §1
To a rat (Wistar strain, male, 300-350 g, 4 heads per group) which had been starved overnight was orally administered a test compound solution, and blood was collected from the abdominal aorta using citric acid after one hour. Two milliliters of a 1×10^9 /ml platelet-rich plasma (PRP) was preincubated at 37° C. for 2 minutes. Subsequently, 0.1 ml of 10 mM sodium archidonate was added, and the resulting mixture was subjected to reaction for 6 minutes, after which indomethacin was added thereto to terminate the reaction. The reaction mixture was subjected to deproteinization treatment and reacted with thiobarbituric acid (TBA) reagent, after which the reaction mixture was subjected to extraction with 3 ml of n-butanol. The resulting extract was subjected to colorimetry (λ=532 nm) to determine the amount of malondialdehyde (MDA) produced. As to the platelet-poor plasma (PPP) obtained from the same rat as above, the same procedure as above was repeated to determine the amount of MDA produced, and the difference between the two is indicated as MDA value. Comparing with the MDA values of the control group, the MDA production-inhibition (%) was determined.
as §2, with “1-9” for “shown in Table 4”, “water” for “water,”, “11-33 and nicardipine” for “shown in Table 5”, “10%” for “10% by volume”, “Cremophor” for “Cremophor,”

[3] = Acute toxicity, intravenous, mice; details: mouse, in vivo, mice (ICR, male, 4 weeks old, 5 per group)
[4] = system: mouse pulmonary infraction model; assay: Antithrombosis activity, mouse pulmonary infraction model, prevention of death and paralysis (0.10 ml epinephrine/collagen); format: in vivo, mouse (ICR strain); details: Mus musculus, po, 1 h, read-out: Preventive percentage of death + paralysis for 10 minutes or more
Experimental: as §1
According to the G. DiMinno and M. J. Silver method [J. Pharmacol. Exp. Therap., 225 (1) 57-60 (1983)], a solution of the compound to be tested was orally administered to a mouse (ICR strain, male, 4 weeks old), and 0.15 ml of a mixed solution of epinephrine (100 μM) and collagen (150 μg/ml) was intravenously administered to the mouse after one hour, after which the paralytic time was measured. Comparing the paralytic time of the control group, the paralytic time-shortening percentage due to the compound to be tested was determined. The results obtained are shown in Table 4, in which the case where the paralytic time was 15 minutes was calculated as death.
Moreover, the same experiment was repeated, except that 0.10 ml of a mixed solution of epinephrine (100 μM) and collagen (150 μg/ml) was intravenously administered to the mouse and the effect of preventing the appearance of death and a case where the paralytic time was 10 minutes or more was checked and the results thereof are shown in Table 5.
as §2

[5] = system: coronary vessel (isolated guinea pig heart); assay: Coronary vasodilating activity (isolated perfused guinea pig heart, coronary effluent); set-up: species or system guinea pig (Hartley strain); details: Langendorff perfusion, 0.1 ml into aorta, hydrochloride
Experimental: as §1
The heart of a guinea pig (Hartley strain, male, 500-700 g, 3 heads per group) was isolated and set in the Landendorff perfusing apparatus. About 0.5% defibrinated blood was fed to the apparatus, and the Krebs bicarbonate solution, into which a mixed gas consisting of 95% of O2 and 5% of CO2 had been bubbled was perfused over the heart, after which a 1 mg/ml solution of the test compound in an aqueous solution containing 10% by volume of dimethylsulfoxide and 10% of polyoxyethylfatty acid glyceride [Cremophor EL manufactured by Sigma] was prepared, diluted with a saline solution to the desired concentration, and then administered into the heart in an amount of 0.1 ml through the rubber tube attached to the cannula inserted retrogressively into the aorta. The vasodilating activity was determined by measuring the amount of the solution effluent from the coronary vessel after passing through the aorta by means of an electric drop counter (universal drop counter manufactured by Natsume Seisakusho) and indicated as ED50 value which is the amount necessary for the amount of the effluent solution to increase 50% as compared with those before addition of the test compound.

[6] = system: vertebral artery blood flow of a dog; assay: Vertebral artery blood flow increasing activity; format: in vivo, dog (mongrel); details: i.v., amount with same activity as 1 mg/kg (i.v.) papaverine hydrochloride, ratio to papaverine hydrochloride
Experimental: as §1
The vertebral artery blood flow of a dog (mongrel, 12-22 kg, 2-3 heads per group) anesthetized with pentobarbital sodium (30 mg/kg, i.v.) was measured by means of an electromagnetic flow meter (MFV-2100 manufactured by Nihon Kohden Kogyo).
The test compounds 1, 3 and 10 were adjusted to a concentration of 1 mg/ml with distilled water, and then diluted with a saline solution to the desired concentrations, after which the thus diluted solutions were intravenously administered, and the test compounds 12, 15, 18, 19, 20, 24, 29, 30, 32 and 33 were formed into solutions in the same manner as in Item 1 above and then intravenously administered.

| SMILES | inhibition in vivo at 10 mg/kg [1] [%] | MDA production-inhibition [2] [%] | LD50 [3] [mg/kg] | inhibition in vivo at 300 mg/kg ([1]; 300 mg/kg) [%] | responders at 30 mg/kg [4] [%] | ED50 (amount necessary for the amount of the effluent solution to increase 50%) [5] [μg/i.c.] | Effect ratio [6] | responders at 10 mg/kg [4] [%] |
| --- | --- | --- | --- | --- | --- | --- | --- | --- |
| CC1=C(C(=O)OCCNC/C(C)=C/c2ccc(Cc3cccnc3)cc2)C(c2cccc([N+](=O)[O-])c2)C(C(=O)OC(C)C)=C(C)N1 (stereo not shown) [compound 8] | 47.9 | 64.9 | ≥ 30 | – | – | – | – | – |
| COC(=O)C1=C(C)NC(C)=C(C(=O)OCCN(C)C/C(C)=C/c2ccc(Cc3cccnc3)cc2)C1c1cccc([N+](=O)[O-])c1 (stereo not shown) [compound 2] | 84.1 | 63.2 | ≥ 30 | – | – | – | – | – |
| CC1=C(C(=O)OCCN(C)C/C=C/c2ccc(Cc3cccnc3)cc2)C(c2cccc([N+](=O)[O-])c2)C(C(=O)OC(C)C)=C(C)N1 (stereo not shown) [compound 7] | 36.4 | 52.8 | ≥ 30 | – | – | – | – | – |
| C/C(=C\c1ccc(Cc2cccnc2)cc1)C(=O)O [OKY-1581, Sodium (E)-3-[4-(pyridin-3-ylmethyl)phenyl]-2-methylpropenoate, reference compound] | – | – | – | 9.5 | 10 | – | – | – |
| COC(=O)C1=C(C)NC(C)=C(C(=O)OCCN(C)Cc2ccccc2)C1c1cccc([N+](=O)[O-])c1 (stereo not shown) [Nicardipine, 3-[2-(N-benzyl-N-methylamino)ethyl]5-methyl 2,6-dimethyl-4-(3-nitrophenyl)-1,4-dihydropyridine-3,5-dicarboxylate hydrochloride, reference compound] | 6.3 | 2.7 | – | – | – | 0.042 | 220 | 0 |
| CCOC(=O)C1=C(C)NC(C)=C(C(=O)OCCN(C)C/C(C)=C/c2ccc(Oc3cccnc3)cc2)C1c1cccc([N+](=O)[O-])c1 (stereo not shown) [compound 10] | 79.2 | – | ≥ 30 | – | – | – | 641 | – |
